In brackets after ≈: the same amount, converted by molar mass.
Tested on: monoclonal antibody against DBP (MAb-DBP)
Experiment: competitive fluorescence polarization immunoassay with DBP-AMF tracer ([…] MAb-DBP, […] tracer)
Type: binding, Mus musculus

CCCCOC(=O)c1ccccc1C(=O)OCCCC [Dibutyl phthalate]
IC50: 0.04 ± 0.002 µg/mL (≈ 0.144 µM)
